Laboratory results: ChEMBL document CHEMBL4359904, “Structural tuning of acridones for developing anticancer agents targeting dihydrofolate reductase” (Bioorg Med Chem Lett, 2019)
Activity calls are given as the source filed them. The rule behind the calls is not given here.

Key:
HCT-116 = test: Growth inhibition of human HCT116 cells incubated for 48 hrs by sulforhodamine B assay; type: functional; conditions: HCT-116, 48 h; for CC50: read-out: pLC50 (the source's name) (converted); for TGI: read-out: pTGI (converted)
C6 [1] = test: Cell cycle arrest in rat C6 cells assessed as increase in cell population at sub G0 phase measured after 24 hrs by propidium iodide staining based flow cytometry analysis; type: functional
NCI-H23 = test: Growth inhibition of human NCI-H23 cells incubated for 48 hrs by sulforhodamine B assay; type: functional; conditions: NCI-H23, 48 h; for CC50: read-out: pLC50 (the source's name) (converted); for TGI: read-out: pTGI (converted)
ACHN = test: Growth inhibition of human ACHN cells incubated for 48 hrs by sulforhodamine B assay; type: functional; conditions: for TGI: read-out: pTGI (converted)
A498 = test: Growth inhibition of human A498 cells incubated for 48 hrs by sulforhodamine B assay; type: functional; conditions: A498, 48 h; for CC50: read-out: pLC50 (the source's name) (converted); for TGI: read-out: pTGI (converted)
RPMI-8226 [2] = test: Growth inhibition of human RPMI8226 cells at 10^-5 M incubated for 48 hrs by sulforhodamine B assay relative to control; type: functional; conditions: RPMI-8226, 48 h, read-out: GI
C6 [3] = test: Induction of morphological changes in rat C6 cells assessed as apperance of differentiated morphology with fine and elongated processes after 24 hrs by inverted microscopy analysis; type: functional, cell-based
MDA-MB-468 [4] = test: Growth inhibition of human MDA-MB-468 cells at 10^-5 M incubated for 48 hrs by sulforhodamine B assay relative to control; type: functional; conditions: MDA-MB-468, 48 h, read-out: GI
M14 = test: Growth inhibition of human M14 cells incubated for 48 hrs by sulforhodamine B assay; type: functional; conditions: M14, 48 h; for CC50: read-out: pLC50 (the source's name) (converted); for TGI: read-out: pTGI (converted)
HT-29 = test: Growth inhibition of human HT-29 cells incubated for 48 hrs by sulforhodamine B assay; type: functional; conditions: HT-29, 48 h; for CC50: read-out: pLC50 (the source's name) (converted); for TGI: read-out: pTGI (converted)
[5] = target: T1, Dihydrofolate reductase (Homo sapiens) (UniProt P00374); test: Competitive inhibition of human dihydrofolate reductase at 30 uM using varying levels of dihydrofolic acid as substrate preincubated for 1 hr in presence of NADPH followed by substrate addition by Line weaver-Burk based double reciprocal plot analysis
T1 sequence (whole entry): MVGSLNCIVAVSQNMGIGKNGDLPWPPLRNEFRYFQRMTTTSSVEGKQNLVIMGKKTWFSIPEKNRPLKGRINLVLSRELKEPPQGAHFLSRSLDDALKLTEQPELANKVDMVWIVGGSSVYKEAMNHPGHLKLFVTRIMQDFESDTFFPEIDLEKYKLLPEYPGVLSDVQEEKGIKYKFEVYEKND

IGROV-1 = test: Growth inhibition of human IGROV1 cells incubated for 48 hrs by sulforhodamine B assay; type: functional; conditions: IGROV-1, 48 h; for CC50: read-out: pLC50 (the source's name) (converted); for TGI: read-out: pTGI (converted)
K562 = test: Growth inhibition of human K562 cells at 10^-5 M incubated for 48 hrs by sulforhodamine B assay relative to control; type: functional; conditions: K562, 48 h, read-out: GI
BT-549 = test: Growth inhibition of human BT549 cells incubated for 48 hrs by sulforhodamine B assay; type: functional; conditions: BT-549, 48 h; for CC50: read-out: pLC50 (the source's name) (converted); for TGI: read-out: pTGI (converted)
C6 [6] = test: Cell cycle arrest in rat C6 cells assessed as decrease in cell population at S phase measured after 24 hrs by propidium iodide staining based flow cytometry analysis; type: functional
MDA-MB-435 = test: Growth inhibition of human MDA-MB-435 cells incubated for 48 hrs by sulforhodamine B assay; type: functional; conditions: MDA-MB-435, 48 h; for CC50: read-out: pLC50 (the source's name) (converted); for TGI: read-out: pTGI (converted)
[7] = test system: Panel NCI-60 (60 carcinoma cell lines); test: Therapeutic index, ratio of LC50 for human NCI60 cells to GI50 for human NCI60 cells measured after 48 hrs by sulforhodamine B assay; type: functional
MDA-MB-468 [8] = test: Growth inhibition of human MDA-MB-468 cells incubated for 48 hrs by sulforhodamine B assay; type: functional; conditions: MDA-MB-468, 48 h; for CC50: read-out: pLC50 (the source's name) (converted); for TGI: read-out: pTGI (converted)
NCI/ADR-RES = test: Growth inhibition of human NCI/ADR-RES cells incubated for 48 hrs by sulforhodamine B assay; type: functional; conditions: for CC50: read-out: pLC50 (the source's name) (converted); for TGI: read-out: pTGI (converted)
CCRF-CEM = test: Growth inhibition of human CCRF-CEM cells incubated for 48 hrs by sulforhodamine B assay; type: functional
SNB-19 = test: Growth inhibition of human SNB19 cells incubated for 48 hrs by sulforhodamine B assay; type: functional; conditions: SNB-19, 48 h; for CC50: read-out: pLC50 (the source's name) (converted); for TGI: read-out: pTGI (converted)
[9] = target: T1, Dihydrofolate reductase (Homo sapiens); test: Inhibition of human dihydrofolate reductase assessed as association constant by UV-Vis spectra based Benesi Hilebrand equation analysis
C6 [10] = test: Antiproliferative activity against rat C6 cells assessed as decrease in cell viability measured after 48 hrs by MTT assay; type: functional, cell-based; conditions: for IC50: C6, 48 h
RXF 393 = test: Growth inhibition of human RXF393 cells incubated for 48 hrs by sulforhodamine B assay; type: functional; conditions: RXF 393, 48 h; for CC50: read-out: pLC50 (the source's name) (converted); for TGI: read-out: pTGI (converted)
RPMI-8226 [11] = test: Growth inhibition of human RPMI8226 cells incubated for 48 hrs by sulforhodamine B assay; type: functional; conditions: RPMI-8226, 48 h; for CC50: read-out: pLC50 (the source's name) (converted); for TGI: read-out: pTGI (converted)
UO-31 = test: Growth inhibition of human UO31 cells at 10^-5 M incubated for 48 hrs by sulforhodamine B assay relative to control; type: functional; conditions: UO-31, 48 h, read-out: GI
C6 [12] = test: Induction of morphological changes in rat C6 cells assessed as cellular senescence by measuring cell rounding with distorted morphology after 24 hrs by inverted microscopy analysis; type: functional, cell-based
[13] = read-out: LC50 (the source's name)
[14] = read-out: pLC50 (the source's name) (converted)

## O=C(OC[C@@H]1CO1)c1cccc2c(=O)c3ccccc3[nH]c12
HCT-116
  GI50: 1120 nM
  CC50: > 100000 nM
  TGI: 8710 nM
C6 [1]
  Activity: Active
NCI-H23
  GI50: 1410 nM
  CC50: > 100000 nM
  TGI: 4470 nM
ACHN; read-out: GI50
  GI50: 890 nM
ACHN; [13]
  CC50: > 100000 nM
ACHN; read-out: pGI50 (converted)
  GI50: 891 nM
ACHN; [14]
  CC50: > 100000 nM
ACHN
  TGI: 3890 nM
A498
  GI50: 2630 nM
  CC50: 27500 nM
  TGI: 6610 nM
RPMI-8226 [2]
  inhibition of growth at 10 µM: 100%
C6 [3]
  Activity: Active
MDA-MB-468 [4]
  inhibition of growth at 10 µM: 100%
M14
  GI50: 1660 nM
  CC50: 9120 nM
  TGI: 3890 nM
HT-29
  GI50: 2240 nM
  CC50: > 100000 nM
  TGI: 7940 nM
[5]
  inhibition: Active
IGROV-1
  GI50: 1550 nM
  CC50: > 100000 nM
  TGI: 5620 nM
K562
  inhibition of growth at 10 µM: 95%
BT-549
  GI50: 1910 nM
  CC50: > 100000 nM
  TGI: 6030 nM
C6 [6]
  inhibition: Active
MDA-MB-435
  GI50: 1620 nM
  CC50: 6610 nM
  TGI: 3240 nM
[7]
  TI: 126
MDA-MB-468 [8]
  GI50: 1820 nM
  CC50: 7940 nM
  TGI: 3800 nM
NCI/ADR-RES
  GI50: 1700 nM
  CC50: > 100000 nM
  TGI: 6310 nM
CCRF-CEM; read-out: GI50
  GI50: 770 nM
CCRF-CEM; [13]
  CC50: > 100000 nM
CCRF-CEM; [14]
  CC50: > 100000 nM
CCRF-CEM; read-out: pTGI (converted)
  TGI: 21900 nM
SNB-19
  GI50: 2290 nM
  CC50: 28200 nM
  TGI: 7760 nM
[9]
  Ka: 1.6 ×10⁴ /M
C6 [10]
  inhibition: Dose-dependent effect
  IC50: 250 to 1500 nM
RXF 393
  GI50: 1380 nM
  CC50: 5750 nM
  TGI: 2820 nM
RPMI-8226 [11]
  GI50: 1950 nM
  CC50: > 100000 nM
  TGI: 6610 nM
UO-31
  inhibition of growth at 10 µM: 100%

## O=c1c2ccccc2n(CC2CO2)c2ccccc12 (racemic)
HCT-116
  GI50: 126 nM
  CC50: > 100000 nM
  TGI: 10000 nM
C6 [12]
  Activity: Active
C6 [1]
  Activity: Active
NCI-H23
  GI50: 295 nM
  CC50: 57500 nM
  TGI: 1290 nM
ACHN; read-out: GI50
  GI50: 90 nM
ACHN; [13]
  CC50: 790 nM
ACHN; read-out: pGI50 (converted)
  GI50: 95.5 nM
ACHN; [14]
  CC50: 794 nM
ACHN
  TGI: 282 nM
A498
  GI50: 1740 nM
  CC50: 7240 nM
  TGI: 3550 nM
RPMI-8226 [2]
  inhibition of growth at 10 µM: 100%
MDA-MB-468 [4]
  inhibition of growth at 10 µM: 100%
M14
  GI50: 331 nM
  CC50: 6170 nM
  TGI: 1510 nM
HT-29
  GI50: 316 nM
  CC50: 23400 nM
  TGI: 871 nM
IGROV-1
  GI50: 331 nM
  CC50: 67600 nM
  TGI: 2570 nM
K562
  inhibition of growth at 10 µM: 92%
BT-549
  GI50: 339 nM
  CC50: 66100 nM
  TGI: 3160 nM
MDA-MB-435
  GI50: 282 nM
  CC50: 4680 nM
  TGI: 1230 nM
[7]
  TI: 28
MDA-MB-468 [8]
  GI50: 1200 nM
  CC50: 7940 nM
  TGI: 3090 nM
NCI/ADR-RES
  GI50: 257 nM
  CC50: > 100000 nM
  TGI: 1100 nM
CCRF-CEM; read-out: GI50
  GI50: 70 nM
CCRF-CEM; [13]
  CC50: > 100000 nM
CCRF-CEM; read-out: pGI50 (converted)
  GI50: 76.9 nM
CCRF-CEM; [14]
  CC50: > 100000 nM
SNB-19
  GI50: 490 nM
  CC50: > 100000 nM
  TGI: 4370 nM
[9]
  Ka: 1.4 ×10⁴ /M
C6 [10]
  inhibition: Dose-dependent effect
  IC50: 250 to 1500 nM
RXF 393
  GI50: 214 nM
  CC50: 2290 nM
  TGI: 513 nM
RPMI-8226 [11]
  GI50: 302 nM
  CC50: > 100000 nM
  TGI: 1100 nM
UO-31
  inhibition of growth at 10 µM: 100%
